Data from article PMC11039317, “Acidity of persulfides and its modulation by the protein environments in sulfide quinone oxidoreductase and thiosulfate sulfurtransferase” (The Journal of Biological Chemistry, 2024).
“And” between values parts separate entries of the source, which are not always exact repeats. Equal values may be shown once. Read-outs that look alike come from different tables or passages of the source. Marks after values point to notes of the source that are not given here.

How the values were obtained:
Cys = conditions: cited from earlier work
Human SQOR [1] = biological target: T1, Human SQOR (Homo sapiens, UniProt Q9Y6N5); conditions: cited from earlier work
T1 construct: made in house

[2] = cited from earlier work
[3] = pKa and nucleophilicity of LMW persulfides by pH-dependence of reaction rates with mBrB (stopped-flow fluorescence); conditions: for ΔpKa: analog thiol pKa minus persulfide pKa; for pKa, Persulfide / kind with mBrB, Persulfide: I = 0.15, 25 °C, this work; for kind with mBrB, Persulfide: pH-independent rate constant
[4] = cited from earlier work; for kind with mBrB, Analog thiol: pH-independent rate constant of analog thiol
Human SQOR [5] = biological target: T1, Human SQOR; type: biochemical; conditions: neutral pH
Protocol: The acidity of the persulfidated SQOR was evaluated by the pH-dependence of the steady-state rates. For enzymes that catalyze reactions with one substrate, the kinetic parameter kcat/Km (specificity constant) is an apparent second-order rate constant that reports on the properties of the free enzyme and the free substrate ([32]). kcat/Km can be calculated from the kinetic parameters kcat and Km obtained from typical Michaelis–Menten analysis (Equation 1). […]
SQOR uses three substrates: H2S, a sulfur acceptor (Acc^−), and CoQ (Fig. 1A). At saturating concentrations of H2S and CoQ, the kcat/Km^Acc- represents the apparent rate constant for the reaction between the sulfur acceptor and the Cys379SSH of the bis-persulfidated SQOR, and its pH-dependency reports on the pKa of both free species. Although the pH dependence of human SQOR activity has been reported ([25]), the pH dependence of kcat/Km is unavailable. The steady-state rate of SQOR was determined by monitoring the reduction of coenzyme Q1 (CoQ1) at 278 nm at varying pH at 25 °C. […]. Therefore, in the experiments with cyanide, the reactions were started with cyanide instead of SQOR so that the contribution of SQOR with H2S alone could be subtracted.
In experiments with sulfite, steady-state time courses with varying concentrations of sulfite (0.01–8 mM) were recorded, and linear functions were fitted to the first 15 to 40 s following SQOR addition (Fig. 3A). The slope before SQOR addition was subtracted to correct for the background nonenzymatic reduction of CoQ1, which was minimal. From the hyperbolic fit of the activity versus sulfite concentration plot (Fig. 3B), the kinetic parameters kcat^sulfite and Km^sulfite were obtained, and the kcat/Km^sulfite for each pH were calculated. As expected, when the kcat/Km^sulfite were plotted against pH, a bell-shaped profile was obtained (Fig. 3C), consistent with a reaction between a deprotonated species and a protonated one. An equation with two pKa was fitted to the data (Equation 3), assuming that deprotonated sulfite and protonated SQOR persulfide were the reacting species. […]. […]
The steady-state rates were obtained from linear fits to the data during the first 4 to 20 s following cyanide addition, and the slopes before cyanide addition were subtracted. The kcat/Km^cyanide at each pH was calculated according to Equation 2 using the enzyme (50 nM) and cyanide (90 μM) initial concentrations. […]
Human SQOR was expressed and purified as reported previously ([24], [25]). SQOR concentration was determined from the FAD absorbance at 450 nm, using ε = 11,500 M^−1 cm^−1 ([25]). […]
The activity of SQOR was measured at different pHs in a temperature-controlled spectrophotometer (Shimadzu UV-2600 or UV-1900i). […]

Human TST = Human TST (Homo sapiens, UniProt Q16762); conditions: cited from earlier work
Cys248 [6] = biological target: T2, Cys248 (UniProt position 248, PLIATCRKGVT); assay: kinetics; conditions: 25 °C; I = 0.15 M (120 mM NaCl); acetic/MES/Tris (15 mM acetic acid, 15 mM MES, 30 mM Tris, 120 mM NaCl, 0.1 mM DTPA); TST thiol (sulfur-free) form reacting with thiosulfate, pseudo-first order
Cys248 [7] = biological target: T2, Cys248; conditions: cited from earlier work
bovine TST = conditions: cited from earlier work
TST thiol = TST thiol (Homo sapiens, UniProt Q16762)
Protocol: The pH-dependency of the reaction rates of TST persulfide with sulfur acceptors and of TST thiol with thiosulfate were studied by following changes in the intrinsic fluorescence (λex = 295 nm, US 360 nm bandpass filter) in the stopped-flow spectrofluorimeter.
To prepare TST thiol, ∼ 100 μM thiosulfate was added to TST stocks ( ∼ 20 μM) at room temperature. After 15 min, ∼ 200 μM cyanide was added and left to react for 10 min. The remaining LMW compounds were removed with a PD MidiTrap G-25 column equilibrated with 10 mM Tris buffer, pH 8.5. The TST thiol was diluted in ultrapure water (1.8–2.0 μM) in one of the stopped-flow syringes and reacted with thiosulfate (400 μM) prepared in the other syringe in either acetic/MES/Tris buffer 2× (pH 3.68–8.75) or in ACES/Tris/ethanolamine buffer 2× (pH 6.68–10.34), at 25 °C. The final concentrations were halved as a result of the symmetrical stopped-flow mixing. The decrease in the intrinsic fluorescence caused by persulfide formation was recorded during 0.8 to 200 s depending on the time course, and the final pH was measured.

[8] = forms as drawn in Table 1 (ammonium form for CysOMeSSH)

T1 sequence (Q9Y6N5 whole entry): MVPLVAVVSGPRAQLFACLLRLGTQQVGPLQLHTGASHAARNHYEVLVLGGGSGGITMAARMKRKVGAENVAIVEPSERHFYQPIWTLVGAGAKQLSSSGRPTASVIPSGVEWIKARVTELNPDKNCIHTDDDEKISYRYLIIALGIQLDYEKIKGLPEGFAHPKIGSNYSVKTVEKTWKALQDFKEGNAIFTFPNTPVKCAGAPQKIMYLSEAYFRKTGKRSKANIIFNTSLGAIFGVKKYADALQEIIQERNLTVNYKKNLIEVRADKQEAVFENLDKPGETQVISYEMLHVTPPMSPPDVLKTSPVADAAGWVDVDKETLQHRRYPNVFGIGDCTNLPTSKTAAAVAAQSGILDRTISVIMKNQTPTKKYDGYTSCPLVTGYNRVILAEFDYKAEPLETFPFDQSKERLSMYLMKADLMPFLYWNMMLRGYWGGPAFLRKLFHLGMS
TST thiol, sequence (Q16762 whole entry): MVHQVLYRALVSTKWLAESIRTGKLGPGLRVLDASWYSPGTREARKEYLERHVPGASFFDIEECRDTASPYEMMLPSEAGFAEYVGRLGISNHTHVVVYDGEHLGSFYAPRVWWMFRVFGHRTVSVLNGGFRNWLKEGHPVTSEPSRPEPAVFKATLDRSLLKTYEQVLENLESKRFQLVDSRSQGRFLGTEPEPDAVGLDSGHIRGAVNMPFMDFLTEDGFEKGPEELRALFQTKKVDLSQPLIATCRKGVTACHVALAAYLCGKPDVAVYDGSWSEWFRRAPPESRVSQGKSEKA
Human TST, sequence (Q16762 whole entry): as above

Molecule: 3-Mercaptopyruvate sulfurtransferase (MPST) (Homo sapiens)
- pKa (Cys): 5.2

Molecule: COC1=C(OC)C(=O)C(CC=C(C)C)=C(C)C1=O [CoQ1, coenzyme Q1]
- Km (Human SQOR [1]; pH 7.5, read-out: Km^CoQ1): 19 µM

Molecule: CC(C)c1ccccc1 [Cumene]
- pKa, Analog thiol ([2]; analog thiol of the persulfide, predicted value based on similar thiols): >10 ^h
- pKa, Persulfide [2]: 7.0 ^g
- ΔpKa [3]: >3

Molecule: COC(=O)[C@@H](N)CSS [CysOMeSS^−, cysteine methyl ester persulfide]
- pKa, Persulfide [3, 8]: 4.6 ± 0.1 ^a
- pKa, Persulfide ([3]; second pKa of two-pKa fit, amino (NH2) form of CysOMeSSH): 6.3 ± 0.6 ^a
- ΔpKa [3]: 2.8
- ΔpKa ([3]; amino (NH2) form of CysOMeSSH): 2.6
- kind with mBrB, Persulfide [3]: 3.8 ± 0.4 ^a × 10^3 M^−1 s^−1
- kind with mBrB, Persulfide ([3]; amino (NH2) form of CysOMeSSH): 5.4 ± 0.8 ^a × 10^3 M^−1 s^−1

Molecule: N[C@@H](CSS)C(=O)O [CysSS^−, cysteine persulfide]
- pKa, Persulfide [3, 8]: 5.2 ± 0.1 ^a
- ΔpKa [3]: 3.1
- kind with mBrB, Persulfide [3]: 3.2 ± 0.1 ^a × 10^3 M^−1 s^−1
- pH-independent second-order rate constant, kind, with mBrB ([3]; persulfide, 25 °C): (3.2 ± 0.1) × 10^3 M^−1 s^−1

Molecule: NCCSS [CystSS^−, cysteamine persulfide]
- pKa, Persulfide [3, 8]: 4.87 ± 0.09 ^a
- kind with mBrB, Persulfide [3]: 3.9 ± 0.2 ^a × 10^3 M^−1 s^−1

Molecule: COC(=O)[C@@H](N)CS [Cysteine methyl ester]
- pKa, Analog thiol ([2]; analog thiol, amino (NH2) form): 8.88 ^b
- pKa, Analog thiol ([2]; analog thiol, ammonium form): 7.44 ^b
- pKa of the ammonium group ([2]; listed as CysOMeSH): 6.88
- pKa of the ammonium group ([2]; listed as CysOMeS^−): 8.32

Molecule: N[C@@H](CS)C(=O)O [Cysteine]
- pKa, Analog thiol ([2]; analog thiol): 8.29 ^d
- kind with mBrB, Analog thiol [4]: 105 ^d M^−1 s^−1

Molecule: N[C@@H](CCC(=O)N[C@@H](CSS)C(=O)NCC(=O)O)C(=O)O [GSS^−, glutathione persulfide]
- pKa, Persulfide ([4]; I = 0.15, 25 °C): 5.45 ± 0.03 ^e
- kind with mBrB, Persulfide ([4]; pH-independent rate constant, I = 0.15, 25 °C): 9.0 ± 0.2 ^e × 10^3 M^−1 s^−1
- ΔpKa [3]: 3.49

Molecule: N[C@@H](CCC(=O)N[C@@H](CS)C(=O)NCC(=O)O)C(=O)O [Glutathione, glutathione]
- pKa, Analog thiol ([2]; analog thiol): 8.94 ^d
- pKa of the glycyl carboxylic acid ([2]; neutral variant of GSH): 3.36
- pKa of the glycyl carboxylic acid ([2]; positive variant of GSH): 3.12
- kind with mBrB, Analog thiol [4]: 208 ^d M^−1 s^−1
- Km (Human SQOR [1]; pH 7.4, read-out: Km^GSH): 8000 µM

Molecule: NC(CCSS)C(=O)O (stereo not shown) [HcySS^−, homocysteine persulfide]
- kind with mBrB, Persulfide [3]: 5.4 ± 0.1 ^a × 10^3 M^−1 s^−1

Molecule: NC(CCS)C(=O)O (stereo not shown) [Homocysteine]
- pKa, Analog thiol ([2]; analog thiol): 9.1 ^d

Molecule: S [Persulfide H2S, hydrogen sulfide]
- Km (Human SQOR [1]; pH 7.4, H2S as sulfur acceptor, read-out: Km^H2S (Acceptor)): 350 µM
- Km (Human SQOR [1]; pH 7.5, first step of catalysis, read-out: Km^H2S (Donor)): 13 µM

Molecule: Cl [chloride]
- increase of apparent Km^sulfite (Human SQOR [5]; in the presence of 120 mM chloride versus absence): ~20 fold
- Ki (Human SQOR [5]; sulfite as sulfur acceptor, read-out: Ki (estimated), reversible competitive inhibition versus sulfite): ~7.4 mM

Molecule: O=S(O)(O)=S [thiosulfate]
- thiosulfate concentration causing inhibition of TST (Human TST; b33: with 312 μM cyanide): 30 mM and > 30 mM
- Km (Human TST; read-out: Km^thiosulfate): 18000 to 45000 µM

Molecule: OCCSS [β-MESS^−, β-mercaptoethanol persulfide]
- pKa, Persulfide [3, 8]: 5.8 ± 0.1 ^a
- ΔpKa [3]: 3.8
- kind with mBrB, Persulfide [3]: 7.5 ± 0.4 ^a × 10^3 M^−1 s^−1

Molecule: OCCS [β-Mercaptoethanol]
- pKa, Analog thiol ([2]; analog thiol): 9.6 ^d
- kind with mBrB, Analog thiol [4]: 519 ^d M^−1 s^−1

Molecule: Thiosulfate sulfurtransferase (TST, rhodanese), thiol form (Homo sapiens)
- pKa (Cys248 [6]): 6.5 ± 0.1

Molecule: Thiosulfate sulfurtransferase (rhodanese), bovine liver (Bos taurus)
- pKa (Cys248 [7]; free enzyme thiol ('the thiol alone')): 7.8
- pKa (Cys248 [7]; thiol in complex with substrate analogs): 6.75 to 7.05
- pKa (Cys248 [7]; thiol in complex with thiosulfate): 6.5

B1: bovine TST: bovine thiosulfate sulfurtransferase (rhodanese), literature values (protein, UniProt P00586 2-297, looked up)
Thiosulfate sulfurtransferase: VHQVLYRALVSTKWLAESVRAGKVGPGLRVLDASWYSPGTREARKEYLERHVPGASFFDIEECRDKASPYEVMLPSEAGFADYVGSLGISNDTHVVVYDGDDLGSFYAPRVWWMFRVFGHRTVSVLNGGFRNWLKEGHPVTSEPSRPEPAIFKATLNRSLLKTYEQVLENLESKRFQLVDSRAQGRYLGTQPEPDAVGLDSGHIRGSVNMPFMNFLTEDGFEKSPEELRAMFEAKKVDLTKPLIATCRKGVTACHIALAAYLCGKPDVAIYDGSWFEWFHRAPPETWVSQGKGGKA
- pKa of the thiol alone (bovine TST; bovine TST): 7.8
- pKa of the thiol in complex with substrate analogs (bovine TST): 6.75 to 7.05
- pKa of the thiol in complex with thiosulfate (bovine TST): 6.5

B2: TST thiol (protein, UniProt Q16762 2-297, looked up)
Thiosulfate sulfurtransferase: VHQVLYRALVSTKWLAESIRTGKLGPGLRVLDASWYSPGTREARKEYLERHVPGASFFDIEECRDTASPYEMMLPSEAGFAEYVGRLGISNHTHVVVYDGEHLGSFYAPRVWWMFRVFGHRTVSVLNGGFRNWLKEGHPVTSEPSRPEPAVFKATLDRSLLKTYEQVLENLESKRFQLVDSRSQGRFLGTEPEPDAVGLDSGHIRGAVNMPFMDFLTEDGFEKGPEELRALFQTKKVDLSQPLIATCRKGVTACHVALAAYLCGKPDVAVYDGSWSEWFRRAPPESRVSQGKSEKA
modifications: active-site cysteine thiol
- pH-independent rate constant, Cyanide (TST thiol): No reaction
- pH-independent rate constant, Sulfite (TST thiol): No reaction
- second-order rate constant with thiosulfate (TST thiol): ~30000 M⁻¹ s⁻¹
- pKa of the decrease in kobs at alkaline pH (TST thiol; pH 6.68): ~10
